PubChem BioAssay AID2124 (Sanford-Burnham Center for Chemical Genomics, 2009)
Records with an inconclusive call do not appear. Active and inactive are the calls of the source. No rule for the calls is given here; tested in MIN6 cells.

Key:
[1] = cell-permeable autofluorescent compounds in GFP channel, dose response, artefact control, imaging, high-content imaging (AID 2124); details: cells, GFP-channel autofluorescence, high-content imaging, at 10 µM; for z-score: stronger effect = higher value;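 as to cell count: cells exposed to compound for 48 hours before fixing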;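 as to z-score: cells exposed to compound for 48 hours before fixing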
[2] = tested on: cells, GFP-channel autofluorescence, high-content imaging; experiment: as above

Row | Compound | cell count [1] [cells] | EC50 [2] | z-score [1]
1 | COc1ccc2c(c1)NC(c1ccc(N(C)C)cc1)c1cccn1-2 (stereo not given) | 2940 | 3.12 µM | –
2 | CC(C)NC(=O)/C(C#N)=C/c1ccc(N(C)C)o1 | 3230 | 14.3 µM (inactive) | –
3 | Cc1cc(N2CCCC2)ccc1/C=C1\NC(=S)N(C)C1=O | 2440 | 7.7 µM | –
4 | Nc1c(C(=O)c2ccccc2)sc2nsc(SCCN3CCCC3)c12 | 2210 | 7.98 µM | –
5 | CCN(CC)c1ccc(/C=C(/C#N)C(=O)NC(C)C)o1 | 3080 | 14.2 µM (inactive) | –
6 | Cn1c(/C(C#N)=C/c2ccc(-c3ccc(S(N)(=O)=O)cc3)o2)nc2ccccc21 | 2680 | 8.08 µM | –
7 | O=C1c2cccc3c(O)ccc(c23)C(=O)N1Cc1ccco1 | 2850 | 14.6 µM (inactive) | –
8 | CN1CC=C2C(C#N)=C(N)C(C#N)(C#N)C(Cc3ccccc3)C2C1 (stereo not given) | 3290 | 13.7 µM (inactive) | –
9 | COc1ccc2c(n1)Sc1nc3ccccc3nc1N2 | 3030 | 6.69 µM | –
10 | CCOC(=O)c1sc2cc([N+](=O)[O-])cc(SCC(C)C)c2c1N | 3070 | 1.24 µM | –
11 | CCN1CC=C2C(C#N)=C(N)C(C#N)(C#N)C(c3cc(Cl)ccc3Cl)C2C1 (stereo not given) | 2980 | 12.8 µM (inactive) | –
12 | CC(=O)c1cc(NC(=O)c2ccc(Cl)cc2)c(=O)oc1/C=C/N(C)C | 2840 | 9.14 µM | –
13 | COc1cc(N2CCCC2)c(OC)cc1/C=C(/C#N)c1cccc(F)c1 | 2910 | 6.47 µM | –
14 | Cc1cccc(N=Cc2[nH]c3ccc(Br)c(Cl)c3c2O)c1 | 3340 | > 16 µM (inactive) | –
15 | COc1cc(/C=C(\C#N)c2nc3ccccc3o2)ccc1O | 3540 | 2.62 µM | –
16 | O=[N+]([O-])c1ccc(N/N=C/c2ccc[nH]2)cc1 | 841 | 4.32 µM | –
17 | C=CCN1C(=O)/C(=C/c2ccc(N(C)C)cc2)S/C1=N\c1nnc(CC)s1 | 2900 | 5.38 µM | –
18 | O=C(O)c1cc(-c2ccc(/C=C3/SC(=S)N(Cc4ccccc4)C3=O)o2)ccc1Cl | 2840 | 7.47 µM | –
19 | COC(=O)c1cc2c(-c3ccccc3)c(C)c3ccccn3c-2c1C(=O)OC | 2900 | 11.3 µM (inactive) | –
20 | COc1cccc2c(=O)n(CC(=O)Nc3cccc(F)c3)ccc12 | 3120 | – | -0.33 (inactive)
21 | CC(C)C(C)(C#N)NC(=O)CSc1nnc(C(F)(F)F)n1C (stereo not given) | 3010 | – | -0.33 (inactive)
22 | CCn1ncc(Br)c1C(=O)Nc1sc2c(c1C(N)=O)CCC2 | 3350 | – | -0.39 (inactive)
23 | COc1cc(OC)c(OC)cc1/C=C1\Oc2cc(OS(C)(=O)=O)ccc2C1=O | 3060 | – | -0.24 (inactive)
24 | COc1ccc(-c2nnn(CC(=O)N(CCO)C(C(=O)NC3CCCC3)c3ccc(F)cc3)n2)cc1 (stereo not given) | 3200 | – | -0.33 (inactive)
25 | CC(C)CNC(=O)CSc1nnc(-c2cccc(S(=O)(=O)N3CCCCC3)c2)o1 | 2900 | – | -0.39 (inactive)
26 | Cc1cccc2sc(NNC(=O)c3ccc4c(c3)OCCO4)nc12 | 3230 | – | -0.39 (inactive)
27 | N#C/C(=C/c1ccc(-c2ccc(S(N)(=O)=O)cc2)o1)c1nc2ccccc2s1 | 1680 | – | 1.86

Row | Compound | cell count [1] [cells] | EC50 [2] | z-score [1]
28 | COc1cc2nc(/C=C/c3ccc(N(C)C)cc3)sc2cc1SC | 2900 | – | 0.29
29 | CCCCc1ccc2[nH]cc(CCN)c2c1 | 2320 | – | -0.38 (inactive)
30 | CCOC(=O)c1nnn(-c2nonc2N)c1-c1ccc(OCC)cc1 | 3520 | – | -0.39 (inactive)
31 | O=C1N/C(=N/Nc2ccccc2)S/C1=C\c1ccccc1 | 3090 | – | -0.26 (inactive)
32 | CN(C)C=Nc1ccc2nn(-c3ccccc3)nc2c1 | 3050 | – | -0.34 (inactive)
33 | CCOC(=O)CC1C(=O)NCCN1c1nc2c(C)cccn2c(=O)c1/C=C1\SC(=S)N(C(C)CC)C1=O (stereo not given) | 3100 | – | 0.45
34 | COc1ccc2cc3cc(C(=O)NCc4ccccn4)oc3nc2c1 | 3310 | – | -0.38 (inactive)
35 | C=CCn1c(=NC(=O)c2cc(-c3cccs3)nc3ccccc23)sc2cc(S(N)(=O)=O)ccc21 | 2770 | – | -0.33 (inactive)
36 | CCn1cc(C(=O)NCCN(C)CCc2ccccc2)c(=O)c2cc(S(=O)(=O)N(C)C)ccc21 | 3360 | – | -0.33 (inactive)
37 | Cn1c(=O)n(C)c2cc(NC(=O)COc3ccc(Cl)cc3)ccc21 | 3010 | – | -0.33 (inactive)
38 | COCCN(CCOC)Cc1cc(=O)oc2cc3c(cc12)CCC3 | 3160 | – | -0.38 (inactive)
39 | O=C(NCCN1CCCC1)C1(S(=O)(=O)c2ccc(Cl)cc2)CC1 | 2860 | – | -0.33 (inactive)
40 | COc1ccccc1NC(=O)COC(=O)C1CC2C=CC1C2 (stereo not given) | 2990 | – | -0.25 (inactive)
41 | CC(C)=NNc1nc2c(c(=O)n(C)c(=O)n2C)n1CCc1ccccc1 | 3610 | – | -0.39 (inactive)
42 | COc1cc(Cl)c(C)cc1NC(=O)CN(C)Cc1cccc(OC)c1OC | 2910 | – | -0.26 (inactive)
43 | Cc1ccc(NC(=O)CCl)c(C)c1 | 2480 | – | -0.33 (inactive)
44 | Oc1c(C=NCc2ccc(F)cc2)[nH]c2ccc(Br)c(Cl)c12 | 3310 | – | -0.31 (inactive)
45 | O=C(CNC(=O)c1ccco1)OCC(=O)c1ccccc1 | 3180 | – | -0.33 (inactive)
46 | CCC(C(=O)OCC(=O)Nc1cccc(S(=O)(=O)NC2=NCCCCC2)c1)c1ccccc1 (stereo not given) | 3080 | – | -0.33 (inactive)
47 | CCN(CC)c1ccc(C(=O)N/N=C/c2ccc(N3CCOCC3)cc2)cc1 | 3040 | – | -0.37 (inactive)
48 | CC(Sc1ccccc1)C(=O)NN=C1CCCCCC1 (stereo not given) | 2920 | – | -0.39 (inactive)
49 | Cn1c(=O)c(NC2CCCCC2)c2c3c(cccc31)C(=O)c1ccccc1-2 | 3050 | – | 3.32
50 | N=c1oc2c3c4c(cc2cc1C(=O)Nc1ccccc1)CCCN4CCC3 | 3140 | – | 0.18
51 | COC(CNC(=O)c1ccc(Cn2c(=S)[nH]c3cc4c(cc3c2=O)OCO4)cc1)OC | 3340 | – | -0.33 (inactive)
52 | Cc1ccc(/C=[N+](\[O-])c2ccc(N(C)C)cc2)c2nsnc12 | 1880 | – | -0.38 (inactive)
53 | C=CCn1c(SCCOc2ccc(OC)cc2)nnc1C(C)NC(=O)Cc1ccc(OC)cc1 (stereo not given) | 3140 | – | -0.33 (inactive)
54 | Cc1ccc(C)c(NC(=O)C(C)CC2COCCO2)c1 (stereo not given) | 3230 | – | -0.38 (inactive)

Row | Compound | cell count [1] [cells] | EC50 [2] | z-score [1]
55 | O=C(CCN1C(=O)/C(=C/c2cccs2)SC1=S)NNC(=O)c1cccc(O)c1 | 3190 | – | -0.33 (inactive)
56 | Nc1c(C(=O)O)sc2nc(-c3ccccc3)cc(-c3ccccc3)c12 | 3320 | – | -0.28 (inactive)
57 | O=Nc1c(O)n(Cc2ccc(Cl)cc2)c2ccccc12 | 3420 | – | -0.33 (inactive)
58 | CCC(C)(C(=O)NC1CCCC1)N(C(=O)CNC(C)=O)c1ccccc1 (stereo not given) | 2960 | – | -0.39 (inactive)
59 | CCCCN1C(=O)/C(=C/C=C2/CC(C)(C)CN2C)SC1=S | 2800 | – | 0.43
60 | CCn1c(SCC(=O)c2c[nH]c3ccccc23)nc2cc(S(=O)(=O)N3CCOCC3)ccc21 | 3200 | – | -0.36 (inactive)
61 | Cc1nc2c(oc3ccccc32)c(=O)o1 | 3020 | – | -0.33 (inactive)
62 | COc1ccc(CN(CC2CCC(C(=O)O)CC2)C(=S)Nc2cccc(C)c2)cc1 (stereo not given) | 3120 | – | -0.38 (inactive)
63 | COCCNC(=O)c1onc(CSc2cccc(C)c2)c1C(=O)O | 3170 | – | -0.39 (inactive)
64 | COCc1cc(C)nc(Nc2ccccc2C)c1C#N | 3240 | – | -0.34 (inactive)
65 | COc1ccc(C2C=C(c3cccs3)Nc3nc(CCCO)nn32)cc1 (stereo not given) | 2650 | – | -0.38 (inactive)
66 | CC(C)NC(=O)N1CCN(c2ccncc2S(=O)(=O)N2CCOCC2)CC1 | 2900 | – | -0.39 (inactive)
67 | O=C1S/C(=C\c2ccc(N3CCOCC3)o2)C(=O)N1Cc1c(F)cccc1Cl | 1540 | – | 2.04
68 | COc1ccccc1Nc1nc(Cl)c(C=O)s1 | 2970 | – | -0.31 (inactive)
69 | O=C(COC(=O)c1cc(S(=O)(=O)N2CCOCC2)ccc1O)NCC1CCCO1 (stereo not given) | 3080 | – | -0.33 (inactive)
70 | CC(=O)C1=C(C)Nc2ncnn2C1c1ccc(Cl)cc1Cl (stereo not given) | 3270 | – | -0.33 (inactive)
71 | COc1ccccc1CC(=O)NC1CC(C)(C)NC(C)(C)C1 | 2940 | – | -0.33 (inactive)
72 | COc1ccc(NC(=O)CSc2nnc(-c3cccs3)n2C)cc1OC | 2880 | – | -0.39 (inactive)
73 | CC1CCCCC1NC(=O)COC(=O)c1c2c(nc3ccccc13)/C(=C/c1ccco1)CC2 (stereo not given) | 2820 | – | -0.35 (inactive)
74 | C=CCSc1nnc(NC(=O)c2cccc(S(=O)(=O)N3CCOCC3)c2)s1 | 2670 | – | -0.38 (inactive)
75 | Fc1ccc(C2CC(c3ccco3)=NN2c2ccccc2)cc1 (stereo not given) | 2910 | – | -0.33 (inactive)
76 | Nc1cc2nc3ccccc3nc2cc1N | 1390 | – | -0.37 (inactive)
77 | Nc1c(C(=O)c2ccc(Cl)cc2)sc2nsc(SCCN3CCOCC3)c12 | 2540 | – | 0.31
78 | Cc1cc(NC(=O)/C(C#N)=C/c2ccc(-c3ccc(SC(F)F)cc3)o2)n(-c2ccccc2)n1 | 2190 | – | 0.3
79 | COC1=CCC2([N+](=O)[O-])CN(CCO)CC1([N+](=O)[O-])C2 (stereo not given) | 3440 | – | -0.33 (inactive)
80 | CC1=CN2C(=N)/C(=C/c3ccc([N+](=O)[O-])o3)C(=O)N=C2S1 | 348 | – | 0.75
